The values that follow come from paper PMC5608406, “In vivo activation of latent HIV with a synthetic bryostatin analog effects both latent cell "kick" and "kill" in strategy for virus eradication” (PLoS Pathogens, 2017).

Data set [1] has as its system primary CD4+ T cells. Kind of data set: Induction of CD69 expression in primary CD4+ T cells. It counts as cell-based, human. To be noted: 24h. The protocol:
Primary human cells from HIV seronegative individuals were cultured in “RF10 medium” consisting of RPMI 1640 medium supplemented with 10% fetal bovine serum (FBS, Omega Scientific), 100 U/mL of penicillin, and 100 μg/mL of streptomycin (Invitrogen). PBMCs were isolated using Ficoll-Paque Plus separation (GE Healthcare). Primary CD4+ T cells were separated from PBMCs by negative immunomagnetic selection using the CD4+ T cell Isolation Kit (Miltenyi Biotec) according to the manufacturer’s instructions. Cells were then exposed to compound for 24 hours before staining and flow cytometric analysis of CD69 levels. Compound incubations were performed by seeding 10^5 cells/well in 100 μL of RF10 media containing the appropriate concentration of compound in wells of a v-bottomed 96-well plate. Bryostatin 1 (Tocris bioscience) and Prostratin (LC Laboratories) were obtained commercially, and bryologs or prostratin analogs were synthesized as previously described.
For human PBMC CD69 induction experiments, cells were stained with CD69-ECD (Beckman Coulter 6607110). During staining, cells were incubated at 4 °C for 20 minutes, washed with 2% FBS in PBS, and then resuspended in 2% paraformaldehyde. Stained samples were stored at 4 °C.
Flow cytometry samples were analyzed using a Cytomics FC 500 (Beckman Coulter) or a LSR Fortessa (BD Biosciences) flow cytometer. Data were analyzed using FlowJo (v7) software.

In data set [2] the test system is murine splenocytes. The data set is described as follows: In vivo bioactivity (CD69/CD25 in splenocytes) in C57/bl6 mice. To be noted: intraperitoneal injection, 24h post-injection, maximum over ascending doses. Here is the method:
C57/bl6 mice were obtained from the UCLA Department of Radiation Oncology. Compounds were suspended in DMSO and then further diluted in RF10 media to produce a final volume of 500 μL (containing a maximum 4% DMSO). These 500 μL volumes were administered to mice by intraperitoneal injection. Mice were monitored for acute toxicities and then sacrificed at the indicated times. Spleens were removed and disaggregated using a steel mesh, and then filtered through a 40 μm filter to produce a single-cell suspension. The resultant splenocytes were then stained for flow cytometry to analyze surface expression of relevant markers.
During standard flow cytometry staining, samples of 10^5 cells were suspended in 50 μL of a 1:1 dilution of phosphate buffered saline (PBS):Human AB serum (Sigma). Staining of C57/bl6 mouse splenocytes was performed by adding the following anti-mouse fluorescent conjugated antibodies: CD3-Fluorescein isothiocyanate (FITC, eBioscience 11-0032-82); CD69-Phycoerythrin (PE, eBioscience 12-0691-83); and CD4-Allophycocyanin (APC, eBioscience 17-0041-83). In some experiments CD4-APC was replaced with CD25-APC (eBioscience 17-0251-82) and CD4-Phycoerythrin Cyanin 7 (PC7, eBioscience 25-0041-82). For humanized mouse studies, PBMC and splenocytes from BLT mice were stained with anti-mouse CD45-Alexa 700 (Biolegend 103128) and the following anti-human antibodies: CD45-e450 (eBioscience 48-0459-42); CD3-APC-780 (eBioscience; 47-0038-42); CD4-V500 (BD biosciences; 560768); CD8-Peridinin chlorophyll protein (PerCP)-710 (eBioscience 46-0087-42); CD25-PE (Beckman IM0479U); CD69-APC (Biolegend 310910); CD14-PE-Cy7 (Biolegend 325618). Cells were separately stained for anti-human CD45 e450- (eBioscience 48-0459-42) and anti-HA-Biotin PE (Roche 12158167001) followed by a secondary Streptavidin, R-Phycoerythrin Conjugate (Invitrogen s866) stain. This two-step stain was performed by incubating 1-2x10^6 cells at 4°C for 20–30 min, washing with 2% FBS in PBS, then adding the secondary stain, incubating again at 4°C for 20–30 min, and washing with 2% FBS in PBS before fixation with 2% paraformaldehyde. In some experiments, cell death was also evaluated by GHOST Red 780 (Tonbo Biosciences 13–0865) or Zombie Yellow (Biolegend 423104) stains. For this procedure, 10^6 cells were suspended in 100 μL PBS, and then the Zombie yellow and GHOST Red 780 dyes added. Cells were incubated for 20 min at room temperature in the dark and then washed twice with 2% FBS in PBS. Cells were then fixed with 2% paraformaldehyde and incubated for 20 min in the dark. In some experiments cells were then washed with 2% FBS in PBS, resuspended in 1:1 PBS:Human AB serum and then stained for human CD45 and HA, CD3-PE-Cy5 (Biolegend 300310), CD4-ECD (Beckman 6604727), CD8 Per-CO710 (eBioscience 46-0087-42) and CD3-APC (Cell signaling 9602S) as described above.

For data set [3] the following is noted: phase I, ART-treated patients; cited from earlier work.

Molecules are shown by their SMILES.

Regarding `CC(=O)O[C@@]12C[C@@H](C)[C@@]3(O)[C@@H](C=C(CO)C[C@]4(O)C(=O)C(C)=C[C@@H]34)[C@@H]1C2(C)C` [Prostratin], in data set [1], the CD69 expression entry is “can each induce expression”.

Consider `CCC/C=C/C=C/C(=O)O[C@H]1/C(=C/C(=O)OC)C[C@H]2C[C@H]([C@@H](C)O)OC(=O)C[C@H](O)C[C@@H]3C[C@H](OC(C)=O)C(C)(C)[C@](O)(C[C@@H]4C/C(=C/C(=O)OC)C[C@H](/C=C/C(C)(C)[C@]1(O)O2)O4)O3` [bryostatin 1], for which the CD69 expression entry in data set [1] is on record as “can each induce expression”. Further, the “CD4+ splenocytes expressing CD69” value in data set [2] was “approximately 60%”. In data set [3], the safety in patients entry was “safe at low doses”.
